Reference: patent US8518952B2, “6 substituted 2-heterocyclylamino pyrazine compounds as CHK-1 inhibitors” (Pfizer Inc., priority 2008, dated 2013)
pEC50, pKi: −log10 of the molar value.

What was measured:
[1] = tested on: Mia Paca-2 cells; test: Histone H3 (Ser10) phosphorylation ELISA, abrogation of camptothecin-induced G2 arrest (CHK-1 cellular assay); type: cell-based; settings: Homo sapiens, camptothecin 8 hrs, then compound with nocodozole 16 hours
Method: The Histone H3 phosphorylation ELISA assay detects cells entering mitosis and represents the primary in vitro cell-based assay used to measure the cellular potency of compounds in abrogating the G2 check point induced by DNA damage in HeLa cells or MiaPaCa cells. The candidate substances were assayed for potency in their ability to inhibit camptothecin-induced G2 arrest, as measured by an increase in Histone H3 phosphorylation on Ser10, a marker of entry into mitosis.
The PathScan Phospho-Histone H3 (Ser10) Sandwich ELISA kit was used (Cell Signaling, #7155) and the assay was performed according to manufacturer recommendations. Tissue culture plates were seeded with HeLa cells or MiaPaCa Cells and allowed to attach overnight. The cells were then treated with camptothecin to induce DNA damage for 8 hrs. Candidate substances or diluent were then added in the presence of nocodozole for 16 hours. Cells were then lysed with buffer from Assay Designs (#80-1114) supplemented with protease inhibitors and frozen overnight. The fresh whole cell lysates were then thawed and added to the ELISA plate with shaking for 3 hours. Between all subsequent steps plates were washed 4 times with PBST. Biotinylated phospho Histone H3 (ser10) detection antibody was added for 1 hour, followed by addition of horseradish peroxidase-linked streptavidin secondary antibody for 1 hour. Color development of the antibody was performed with addition of TMB substrate and incubation for 2 minutes on a plate shaker. Stop solution was added and plates were read with absorbance at 450 nm on a spectrophotometer. EC50 values were calculated by sigmoid curve fitting using a four-parameter analysis.
Under the “Ki” column, data entries in the format of “%” are percent inhibition data where no Ki data is available. Data entry under the “EC50” column with an * are data obtained using Mia Paca-2 cells rather than HeLa cells. Data is not available where noted as n/a.

[2] = biological target: T1, CHK1 (kinase domain) (Homo sapiens, UniProt O14757); test: CHK1 Ki determination, spectrophotometric coupled (pyruvate kinase/lactate dehydrogenase) assay; type: biochemical; settings: CHK-1 kinase domain; 150 uM ATP, 125 uM Syntide 2
T1 construct: a solution containing 1 nM of CHK1 (kinase domain)
T1 sequence (O14757 9-265 limits assumed): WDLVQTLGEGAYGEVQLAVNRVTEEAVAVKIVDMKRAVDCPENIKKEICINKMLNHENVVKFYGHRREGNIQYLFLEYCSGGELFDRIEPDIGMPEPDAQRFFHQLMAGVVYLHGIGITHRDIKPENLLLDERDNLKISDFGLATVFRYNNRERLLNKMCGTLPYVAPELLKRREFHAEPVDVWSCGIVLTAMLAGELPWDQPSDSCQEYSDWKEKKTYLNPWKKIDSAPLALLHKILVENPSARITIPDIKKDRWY
Outline: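 The CHK1 kinase domain was pre-incubated with compound for 15 min, and the reaction was started with 125 uM Syntide 2 and 150 uM ATP. ADP formation was coupled through pyruvate kinase/lactate dehydrogenase to NADH oxidation, read as the A340 decrease. Kiapp was fitted with a tight-binding equation that accounts for enzyme concentration and ATP Km; some entries are % inhibition.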

[3] = MIA PaCa-2, Mia Paca-2 cells (entries marked *)
[4] = Mia Paca-2 cells (entries marked *)

Compound | pEC50 [1, 3] | pKi [2] | pEC50 [1, 4]
C[C@H]1NCCC[C@H]1Nc1cncc(-c2cnc3ccc(C(F)(F)F)cn23)n1 [Example 228, N-[(2R,3R)-2-methylpiperidin-3-yl]-6-[6-(trifluoromethyl)imidazo[1,2-a]pyridin-3-yl]pyrazin-2-amine] | 7.61 | 8.19 | 
C[C@@H]1CNC[C@@H]1Nc1cncc(-c2cnc3ccc(Cl)cn23)n1 [Example 229, 6-(6-chloroimidazo[1,2-a]pyridin-3-yl)-N-[(3R,4R)-4-methylpyrrolidin-3-yl]pyrazin-2-amine] |  | 8.36 | 8.01
FC1(F)CCNCC1Nc1cncc(-c2cnc3ccc(Cl)cn23)n1 (stereo not shown) [Example 230, 6-(6-chloroimidazo[1,2-a]pyridin-3-yl)-N-(4,4-difluoropiperidin-3-yl)pyrazin-2-amine] | 7.11 | 8.04 | 
FC(F)(F)c1ccc2ncc(-c3cncc(NC4CNCCC4(F)F)n3)n2c1 (stereo not shown) [Example 231, N-(4,4-difluoropiperidin-3-yl)-6-[6-(trifluoromethyl)imidazo[1,2-a]pyridin-3-yl]pyrazin-2-amine] | 4.70 | 7.54 | 
CC(C)(O)c1ccc2ncc(-c3cncc(N[C@@H]4CCCNC4)n3)n2c1 [Example 232, 2-(3-{6-[(3R)-piperidin-3-ylamino]pyrazin-2-yl}imidazo[1,2-a]pyridin-6-yl)propan-2-ol] | 7.00 | 8.59 | 
Nc1ccc2ncc(-c3cncc(N[C@@H]4CCCNC4)n3)n2c1 [Example 233, 3-{6-[(3R)-piperidin-3-ylamino]pyrazin-2-yl}imidazo[1,2-a]pyridin-6-amine] | 7.12 | 8.47 | 
C[C@@H]1CNC[C@@H]1Nc1cncc(-n2cnc3cc(OCC4(C)COC4)ccc32)n1 [Example 234, 6-{5-[(3-methyloxetan-3-yl)methoxy]-1H-benzimidazol-1-yl}-N-[(3R,4R)-4-methylpyrrolidin-3-yl]pyrazin-2-amine] |  | 8.60 | 7.05
Fc1ccn2c(-c3cncc(N[C@@H]4CCCNC4)n3)cnc2c1 [Example 235, 6-(7-fluoroimidazo[1,2-a]pyridin-3-yl)-N-[(3R)-piperidin-3-yl]pyrazin-2-amine] | 7.17 | 8.17 | 
COC[C@@H]1C[C@@H](Nc2cncc(-c3cnc4cc(F)ccn34)n2)CN1 [Example 236, 6-(7-fluoroimidazo[1,2-a]pyridin-3-yl)-N-[(3R,5S)-5-(methoxymethyl)pyrrolidin-3-yl]pyrazin-2-amine] |  | 7.06 | 6.32
Cc1cn2c(-c3cncc(N[C@H]4CN[C@H](CO)C4)n3)cnc2s1 [Example 237, [(2S,4R)-4-{[6-(2-methylimidazo[2,1-b][1,3]thiazol-5-yl)pyrazin-2-yl]amino}pyrrolidin-2-yl]methanol] |  | 8.53 | 7.33
OC[C@@H]1C[C@@H](Nc2cncc(-c3cnc4ccccn34)n2)CN1 [Example 238, [(2S,4R)-4-{[6-(imidazo[1,2-a]pyridin-3-yl)pyrazin-2-yl]amino}pyrrolidin-2-yl]methanol] |  | 8.31 | 7.06
COC[C@@H]1C[C@@H](Nc2cncc(-c3cnc4cc(C)ccn34)n2)CN1 [Example 239, N-[(3R,5S)-5-(methoxymethyl)pyrrolidin-3-yl]-6-(7-methylimidazo[1,2-a]pyridin-3-yl)pyrazin-2-amine] |  | 7.14 | 6.70
Cc1ccn2c(-c3cncc(N[C@H]4CN[C@H](COC(C)C)C4)n3)cnc2c1 [Example 240, 6-(7-methylimidazo[1,2-a]pyridin-3-yl)-N-{(3R,5S)-5-[(propan-2-yloxy)methyl]pyrrolidin-3-yl}pyrazin-2-amine] |  | 7.21 | 6.77
CCOC[C@@H]1C[C@@H](Nc2cncc(-c3cnc4cc(C)ccn34)n2)CN1 [Example 241, N-[(3R,5S)-5-(ethoxymethyl)pyrrolidin-3-yl]-6-(7-methylimidazo[1,2-a]pyridin-3-yl)pyrazin-2-amine] |  | 7.35 | 6.70
